Holding throughout (assay type): biochemical
One experiment addresses T1, Aβ40 (Homo sapiens, UniProt P05067).
T1 construct: Amyloid protein (Aβ40) was purchased from GL Biochem Ltd. (Shanghai, China); purchased GL Biochem Ltd. (Shanghai, China)
Description: Circular dichroism of Aβ40 secondary structure with fibril breakers. Conditions: iAβ5 910 μM, 60.7 equiv; Aβ40 15 μM; 3 days. On the procedure:
We used circular dichroism studies to further confirm the secondary structures of disassembled Aβ40 aggregates in the presence of mP-iAβ5 conjugates, PHPMA, or iAβ5. Aβ40 solutions were incubated alone for 24 h to form fibrils. […] As Aβ40 continues to aggregate, the negative peak at 198 nm was converted to the positive peak around 194 nm and a negative peak around 217 nm.
Fibril breakers (mP-iAβ5 conjugates, PHPMA, or iAβ5) were added to preformed Aβ40 fibrils after 24 h and coincubated for 3 days before the structure characterization by circular dichroism.
Circular Dichroism (CD) spectroscopy. CD spectra of Aβ40 fibril solution incubated without or with fibril breakers (mP-iAβ5 conjugates, PHPMA, or iAβ5) were recorded in a JASCO J-815 Spectrometer (JASCO Co., Tokyo, Japan), using a quartz cuvette (1 mm path length). […] The spectra were taken as the average of three accumulations from 190 and 260 nm at a speed of 50 nm/min. All of the samples were incubated at 37° C. in 10 mM phosphate buffer solution (PBS) with a continuous agitation speed of 567 rpm. Spectra were calibrated by subtracting the buffer or sample solution baseline.

The target in experiment [1] is T2, preformed Aβ40 fibrils (Homo sapiens, UniProt P05067).
T2 construct: Amyloid protein (Aβ40) was purchased from GL Biochem Ltd. (Shanghai, China); purchased GL Biochem Ltd. (Shanghai, China)
Description: ThT fluorescence assay of Aβ40 fibril disassembly. Conditions: 15 μM Aβ40, PBS pH 7.4, 37° C., 3 days. On the procedure: ThT fluorescence assays were conducted in 96-well black plate (Thermo Scientific NUNC, catalog NO. 265301) at 37° C. with continuous shaking (567 rpm) in a BioTek Hybrid H1 plate reader. ThT fluorescence was recorded with 10 minutes reading intervals and 5 s shaking before first read (442 nm excitation, 482 nm emission). All samples were run in quadruple or more. At least three independent experiments were carried out for each ThT assay. Each well contained 10 mM PBS buffer solution (pH 7.4) and 20 μM ThT in a total volume of 200 μL. Aβ40 (15 μM, 1.0 equiv), iAβ5, control polymer 5, and mP-iAβ5 conjugates 4 of different molecular weights were added as needed. The concentrations of added samples were calculated based on Aβ40 (15 μM, 1.0 equiv).
Preparation of Buffered ThT Solution. The ThT solution in 20 mM PBS was freshly prepared before use. […] The concentration of the above solution was determined by UV-Vis at 412 nm (ε=36000 M^−1 cm^−1). Based on the determined concentration of the ThT solution, ultrapure water and 100 mM PBS were further added to dilute the ThT solution to 40 μM in 20 mM PBS, pH 7.4 […]
To each well of 96-well plate, the buffered ThT solution (40 μM, 100 μL) and ultrapure water (80 μL) were added and mixed. […] The samples containing mature fibrils of Aβ40 and modulators were coincubated for another 3 days in plate reader. The fluorescence was monitored by ThT assays.

The target of experiment [2] is T2, preformed Aβ40 fibrils. In words: Control incubations with preformed Aβ40 fibrils assessed by AFM and DLS. To be noted: 3 days of incubation. On the procedure: To evaluate the ability of mP-iAβ5 conjugates to disassemble amyloid fibrils, we conducted experiments in which mP-iAβ5 conjugates were incubated with preformed Aβ40 fibrils. Freshly prepared Aβ40 (15 μM) solutions were preincubated at 37° C. for 24 h, which is sufficiently long for mature fibrils to grow, as evidenced by AFM images and ThT fluorescence assays (FIG. 8). The preformed Aβ40 fibrils solution was then coincubated with 1.0 equiv of mP-iAβ5 conjugates of different molecular weights, and the morphology transformation of the fibril structures was monitored at 37° C. for 3 days by DLS, AFM imaging, and ThT fluorescence (we define an equiv of mP-iAβ5 as the molar ratio of polymer to Aβ40).
The molecular weight of mP-iAβ5 conjugate that completely disassembles preformed Aβ40 fibrils is 166 kDa. […] The disassembly of preformed fibrils by mP-iAβ5 conjugates was also quantitatively analyzed by DLS in solution phase. In agreement with AFM images, DLS results confirmed that all Aβ40 fibrils were transformed into dispersible sub-100 nm structures, and 0% of fibrils remained after 3 days of incubation (FIG. 2i). […] To investigate the effect of the PHPMA polymer backbone without iAβ5 moieties on Aβ40 disassembly, we incubated preformed Aβ40 fibrils in the presence of 1.0 equiv of 166 kDa PHPMA with and without 60.7 equiv of iAβ5 for 3 days.
Atomic Force Microscopy (AFM). Samples for AFM studies were taken directly from the ThT assays, and 10 μL of each sample solution was loaded on freshly cleaved mica surface (Electron Microscopy Sciences, catalog NO. 71856-01). Samples were incubated for 5 minutes and rinsed with 5 drops of molecular biology grade water. The mica surface was blow-dried under nitrogen. AFM images were obtained on a MultiMode V (Bruker, Santa Barbara, USA) microscope in tapping mode. Ultrasharp silicon cantilevers (SCANASYST-ATR, Bruker) were used. All of the images were collected at a scan rate of 1 Hz and scan lines of 512.
Dynamic Light Scattering (DLS). Samples for DLS studies were prepared at the same condition as in ThT assays without adding ThT dye molecules. The DLS studies were carried out using a particle sizer NICOMP 380 ZLS.

T2 sequence (P05067 672-711 limits assumed): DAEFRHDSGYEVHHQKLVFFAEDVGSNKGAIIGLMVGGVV
T1 sequence (P05067 672-711 limits assumed): as above

As for LPFFD [iAβ5], the “secondary structure by CD after coincubation with preformed Aβ40 fibrils” value at Aβ40 is on record as “remain β-sheet structures”. Besides, at preformed Aβ40 fibrils [1], the “ThT intensity during coincubation with Aβ40 fibrils” value is reported as “not accompanied by the decreased ThT intensity”. Besides, the “effect on preformed fibrils according to AFM and DLS” value at preformed Aβ40 fibrils [2] (8.1 equiv of iAβ5 per Aβ40), on preformed Aβ40 fibrils [2] (16.7 equiv of iAβ5 per Aβ40), at preformed Aβ40 fibrils [2] (32.5 equiv of iAβ5 per Aβ40), at preformed Aβ40 fibrils [2] (60.7 equiv of iAβ5 per Aβ40) and on preformed Aβ40 fibrils [2] (81.3 equiv of iAβ5 per Aβ40) was “remained unchanged” throughout.

The values are drawn from patent publication US20180296683A1, “COMPOSITIONS AND METHODS FOR DISASSEMBLING AMYLOID FIBRILS” (The Board of Trustees of the University of Illinois, priority 2017, published 2018).
